Reference: paper PMC6814738, “Bacterial MgrB peptide activates chemoreceptor Fpr3 in mouse accessory olfactory system and drives avoidance behaviour” (Nature Communications, 2019)
Several values for one entry are separate records, joined by “and”; a condition that tells them apart may be missing. Equal entries are not always repeated. Where two headings read alike, the source gives them in different places.

Columns and labels:
[1] = system: male mice; assay: Behavioural avoidance test, FEU vs. FEU supplemented with peptide (Fig. 8, Supplementary Fig. 4); assay type: in vivo, mouse; conditions: for avoidance, in words: 100 µM, B6 mice (f-MKKFRW also ΔFpr3-lacZ+/+, cGαo+/−, Trpc2+/−); for avoidance index: 100 µM in FEU, mean ± s.e.m.; for Preference (%): group mean value, FEU vs FEU supplemented with 100 µM peptide
Method: These assays were adapted from behavioural procedures described previously[14],[60]. We tested avoidance by giving adult male mice (8–14 week old) of various genotypes a choice to freely investigate two types of chemical stimuli: FEU vs. FEU supplemented with a peptide. Mice were sexually naïve and not exposed to the test stimuli prior to the testing day. Mice were habituated for three days (40 min each day) to clean filter papers (2.5 cm diameter), each deposited in a sterile plastic culture dish and placed in opposite corners of the test cage (30 × 12 cm). After the third habituation period, the test subject was transferred into a new cage containing fresh filter papers/dishes with either of the two test stimuli. One filter paper was impregnated with 45 µl of fresh urine pooled from two sexually naïve female B6 mice (8–16 weeks old) in oestrus (FEU, female oestrous urine) and 5 µl physiological solution containing (in mM): NaCl, 130; KCl, 5; Na-Hepes, 10; CaCl2, 2; glucose, 10; pH = 7.4. For testing the effects of specific peptides, the second filter paper was impregnated with FEU supplemented with a given peptide (100 or 50 µM final concentration, dissolved in physiological solution). Direct physical contact was allowed. Behaviour was recorded for 10 min from the top of the cage. Mice were exposed only once to a given peptide solution, and were exposed to only one peptide stimulus per day. Stimuli were presented in randomised order. […] This investigative behaviour was quantified as the time spent in close contact with each filter paper, scored manually by an observer blind to the experimental conditions using Behavioural Observation Research Interactive Software (BORIS)[85]. Contact time was measured as the time during which the nose crossed the border of a petri dish containing impregnated filter paper. An avoidance index was calculated as (TP — aTU)/(aTP + aTU), with TP as the time an individual mouse investigated a FEU-peptide mixture, aTP as the average time of all tested mice investigating this stimulus and aTU as the average time of all mice investigating FEU without added peptide. Negative values represent avoidance and positive values represent attraction. For analysing investigation of sick conspecifics, B6 mice were injected either with LPS or PBS as described above. In total, 4 h post injection, these mice were anaesthetised with 165 mg/kg ketamine (Pharmacia GmbH, Berlin, Germany) and 11 mg/kg xylazine (Bayer Health Care, Leverkusen, Germany) and then used in behavioural tests.

[2] = system: vomeronasal sensory neurons (VSNs); assay: VNO whole-mount en face confocal Ca2+ imaging of VSN dendritic knobs (Fig. 4, 5); assay type: cell-based, mouse; set-up: key to Ca2+ response of f-MKKFRW-responsive VSN knobs / Fpeak: normalised to knob resting fluorescence F0 before stimulation; conditions: for Fpeak / Ca2+ response of f-MKKFRW-responsive VSN knobs: Fig. 4h; for Fpeak: mean of individual knobs, n = 103 f-MKKFRW, 21 f-MKKFRWVVL, 68 MKKFRW, 26 f-MGFFIS, 63 PUM; for Ca2+ responses in VSNs, in words: VNE of adult B6 mice, f-MKKFRW 1 µM; for Ca2+ response of f-MKKFRW-responsive VSN knobs: adult B6 mice, mean ± s.d., N = 103 (f-MKKFRW), 21 (f-MKKFRWVVL), 68 (MKKFRW), 26 (f-MGFFIS), 63 (PUM)
Source text: Mice (6–20 week old, either sex) were euthanized by CO2 inhalation according to institutional guidelines. After decapitation, the skin was removed from the skull, the mandible was cut off and the cranium was opened by a sagittal cut, 1–2-mm right-lateral in parallel to the midline. The palate and the right incisor were removed and the hemisected skull was mounted in low-melting agarose (4%). The bony capsule of the VNO was opened with fine forceps and the nonsensory epithelium was stripped off. Tissue and cell debris were gently washed off, and the en face preparation was superfused with physiological S1 solution (120 mM NaCl, 25 mM NaHCO3, 5 mM KCl, 1 mM MgSO4, 1 mM CaCl2, 10 mM glucose, 5 mM BES, pH 7.3) saturated with carbogen (95% O2, 5% CO2).
Loading of the VNE with Rhod-2/AM (5–15 µM, 1 h) was performed in S1 solution under carbogen atmosphere at RT. Images were taken with an upright confocal laser scanning microscope (Leica TCS SP5 II, 20x water immersion objective HCX APO L20x/1.0w) equipped with Ar and He/Ne lasers. GFP was excited at 488 nm, Venus at 514 nm and Rhod-2 at 543 nm. Emission was measured at 490–520 nm (GFP), 520–600 nm (Venus) and 560–680 nm (Rhod-2). To minimise interference between Venus and Rhod-2 fluorescence, images were taken sequentially (sample interval per image, 3–4 s). Peptide stimuli were applied to the VNE surface with a local perfusion system which, when positioned close to the anterior end of the VNO, produced a continuous solution stream from rostral to caudal along the VNO axis. Data analysis was performed with the open source software ImageJ (NIH). Ca^2+ responses of individual dendritic knobs were normalised to the knob resting fluorescence level obtained before stimulation (ratio Fx/F0, Fx = actual fluorescence; F0 = mean fluorescence of 3–5 images before ligand application). Mapping was performed by superimposing Ca^2+ peak images onto images showing intrinsic fluorescence for specific markers.
Predator urine mix was composed of urine from mountain lion, coyote, bobcat, fox and marten (at equal volume ratios), purchased from Predatorpee (USA) and Kieferle (Germany). The fMet peptides were as described above. Stimuli were applied in S2 solution (140 mM NaCl, 5 mM KCl, 10 mM HEPES, 1 mM CaCl2, 1 mM MgCl2, 10 mM glucose, pH 7.3 with NaOH).

[3] = system: mouse Fpr3; conditions: cited from earlier work
Method: We estimate the fraction of knobs responding to f-MKKFRW as ~0.15%, which is similar to the fraction of cells in the VNE that express Fpr3[30]. Strikingly, the sensitivity and sequence-selectivity profile of these responses was nearly identical to the results that we obtained for heterologously expressed Fpr3. The detection threshold of native VSNs for f-MKKFRW was ≤0.1 µM (Fig. 4f), virtually the same as for Fpr3-expres ... || Given the importance of the olfactory system in a variety of behavioural avoidance and defence mechanisms[14],[62],[63], we reasoned that in vivo detection of MgrB peptide may evoke an avoidance reaction in mice. We devised a behavioural assay[14],[60] in order to determine whether direct nasal contact with MgrB peptide evokes unconditioned, innate avoidance (Fig. 8a and Methods). […] (Fig ... || We used custom-made peptides with a length of 6–21 amino acids to screen for agonists. Sequences of fMet peptides were designed according to motifs present at the N-termini of 15,125 specific bacterial proteins as annotated in UniProt. Peptides were chemically synthesised, purified, and verified by mass spectroscopy (MALDI-TOF) by commercial suppliers. Purity of all peptides was >95%. Source, sequence and purity of each peptide are listed in Supplementary Data 1. Lyophilised peptides were routinely dissolved in the Ca^2+ imaging assay buffer C1 (130 mM NaCl, 10 mM HEPES, 5 mM KCl, 2 mM CaCl2, ...

[4] = B6, n = 10-11, negative = avoidance

Q: Which results are given for MKKFRW [non-formylated MKKFRW peptide]?
A: avoidance, in words [1]: failed to elicit avoidance; avoidance index [1, 4]: 0.07 ± 0.05; Preference Index ([1]; Fig. 8c, individual values, B6 mice): -0.0604 and 0.2531 and -0.1298 and -0.1953 and 0.1497 and 0.2996 and 0.2407 and -0.00533 and -0.09796 and 0.2025 and 0.1402; Preference Index ([1]; Fig. 8c, mean, B6 mice, n = 11 f-MKKFRW, 11 MKKFRW, 10 f-MGFFIS, 10 f-MEQQNK, FEU control -0.002): 0.07; Preference Index ([1]; Fig. 8e, individual values, cGao +/-): -0.2952 and -0.1477 and 0.0923 and 0.1621 and -0.0653 and -0.08718 and -0.2984 and 0.512 and -0.2293 and -0.2843 and -0.4122 and -0.3523; Preference Index ([1]; Fig. 8e, individual values, cGao -/-): -0.00407 and 0.301 and 0.1658 and 0.1525 and 0.9449 and 0.3984 and 0.4927 and 0.2412 and 0.4087 and 0.6592 and -0.3896 and -0.3365 and -0.3471; Preference Index ([1]; Fig. 8e, mean, cGao +/-, n = 13 f-MKKFRW, 12 MKKFRW, FEU control -0.0358): -0.12; Preference Index ([1]; Fig. 8e, mean, cGao -/-, n = 13, FEU control 0.15): 0.21; Preference Index ([1]; Fig. 8f, individual values, Trpc2 +/-): 0.2866 and 0.03638 and -0.02867 and 0.9217 and 0.4878 and -0.4504 and -0.342 and -0.3772 and -0.3362; Preference Index ([1]; Fig. 8f, individual values, Trpc2 -/-): 1.085 and 1.60E-05 and 0.07163 and 0.2257 and 0.5213 and -0.3383 and -0.4081 and -0.0323; Preference Index ([1]; Fig. 8f, mean, Trpc2 +/-, n = 12 f-MKKFRW, 9 MKKFRW, FEU control -0.0531): 0.022; Preference Index ([1]; Fig. 8f, mean, Trpc2 -/-, n = 11 f-MKKFRW, 8 MKKFRW, FEU control -0.10): 0.14; Preference (%) ([1]; Fig. 8g, ∆Fpr3-lacZ +/+ males, FEU/FEU control -5.85844): 7.718%; Preference (%) ([1]; Fig. 8g, ∆Fpr3-lacZ -/- males, FEU/FEU control 2.58474): 9.878%; Preference (%) ([1]; Fig. 8h, Trpc2 +/- males, FEU/FEU control 0.100694): 6.911%; Preference (%) ([1]; Fig. 8h, Trpc2 -/- males, FEU/FEU control -3.21189): -1.784%; Preference Index ([1]; Fig. 8d, individual values, ∆Fpr3-lacZ +/+): -0.2521 and -0.1287 and 0.07074 and 0.3269 and 0.2942 and 0.3844; Preference Index ([1]; Fig. 8d, individual values, ∆Fpr3-lacZ -/-): -0.1393 and 0.3319 and 0.8558 and 1.088 and -0.03627 and 0.0259 and -0.07697 and -0.00886 and -0.09833 and -0.1976 and 0.3575 and 0.2784; Preference Index ([1]; Fig. 8d, mean, ∆Fpr3-lacZ +/+, n = 9 f-MKKFRW, 6 MKKFRW, FEU control -0.06): 0.12; Preference Index ([1]; Fig. 8d, mean, ∆Fpr3-lacZ -/-, n = 12, FEU control 0.19): 0.20; avoidance index ([1]; Trpc2 +/−): 0.02 ± 0.16; avoidance index ([1]; Trpc2 −/−): 0.14 ± 0.17; avoidance index ([1]; cGαo +/−): −0.12 ± 0.08; avoidance index ([1]; cGαo −/−, n = 13): 0.21 ± 0.11; avoidance index ([1]; ∆Fpr3-lacZ +/+): 0.12 ± 0.11; avoidance index ([1]; ∆Fpr3-lacZ −/−, n = 12): 0.20 ± 0.12; Fpeak [2]: 0.00; Ca2+ responses in VSNs, in words [2]: failed to evoke Ca^2+ responses in VSNs; Ca2+ response of f-MKKFRW-responsive VSN knobs [2]: 0.00 ± 0.00

Q: With W-peptide [reference compound] as the substance, how does the “agonism at mouse Fpr3, in words” value [3] read?
A: The value was “agonists for mouse Fpr3”.

Q: With f-MFQQNK [reference compound] as the substance, how does the “avoidance, in words” value [1] read?
A: Its value is “failed to elicit avoidance”.

Q: And the avoidance index [1, 4]?
A: The avoidance index was 0.04 ± 0.09.

Q: What about the “activation of heterologously expressed Fpr3, in words” value [3] of the same substance?
A: The value was “failed to activate heterologously expressed Fpr3”.

Q: With f-MKKFRWVVL [MgrB nonapeptide] as the substance, how does the Fpeak [2] read?
A: Its Fpeak is 0.64.

Q: And the “Ca2+ responses in VSNs, in words” value [2]?
A: Its value is “VSNs that recognised f-MKKFRW responded also”.

Q: And the “Ca2+ response of f-MKKFRW-responsive VSN knobs” value [2]?
A: The value was 0.64 ± 0.45.

Q: For “f-MLFYFS [signal peptide fragment identified as agonist for mouse Fpr3, reference compound]”, which “agonism at mouse Fpr3, in words” value ([3]; signal peptide fragments) is on record?
A: Its value is “agonists for mouse Fpr3”.

Q: For f-MLFYLA, which “agonism at mouse Fpr3, in words” value ([3]; signal peptide fragments) is on record?
A: The value was “agonists for mouse Fpr3”.
